Patent US20090247492A1, “MANGANESE BASED ORGANOMETALLIC COMPLEXES, PHARMACEUTICAL COMPOSITIONS AND DIETETIC PRODUCTS” (MEDESIS PHARMA S.A.,, priority 2003, published 2009)
Several values for one entry are separate records, joined by “and”; a condition that tells them apart may be missing. Equal values may be shown once.

What was measured:
[1] = tested on: edema produced by injection of adriamycin under the arch of the hind paw of the rat; assay: adriamycin test: paw edema in the Wistar rat (anti-free radical activity); assay type: in vivo; set-up: Paw volume, group mean: unit not given beside the values; settings: for Paw volume, individual animals / Paw volume, group mean / Percentage paw edema, individual animals / Percentage paw edema, group mean: 100 mg/kg IP daily; for Paw volume, group mean / Percentage paw edema, group mean: 10 rats; for Percentage of edema inhibition (protection): vs olive oil control, Diosmine 100 mg/kg IP, Example 4 1 ml/kg IP
Protocol: The adriamycin test is a specific test used to show evidence of the anti-free radical activity of a test substance. This test is described in G. Jadot, Cedema from adriamycin in the Wistar rat. SuperOxide Dismutases, p 73-77, Masson Ed., Paris, 1988.
One hour following injection of Adriamycin, a temporary inflammatory response lasting 12 hours can be observed. This first phase corresponds to the release of histamine, serotonine and the accumulation of polynuclear neutrophiles. A second inflammatory phase commences on the third day following administration and continues for 5 days. During this inflammatory phase, vascular hyperpermeability […] endothelial cell membrane alteration produced by free radical oxidative damage. Steroidal and non-steroidal anti-inflammatory drugs are not effective during this second inflammatory phase.
Research into an anti-free radical activity in the rat by intra-peritoneal administration consists of measuring the reduction in edema produced by injection of adriamycin under the arch of the hind paw of the rat.
Male Wistar rats were used for these tests, after a quarantine period of 15 days.
(Edema was induced by subcutaneous injection of a 0.2 ml solution of adriamycin (2.5 mg/ml) in the arch of the right hind paw of the rat (Siegel's method modified by Jadot (1988)).
The compounds tested were administered 2 hours before the first measurements on the first day, and 1 hour before the measurements on the following days, until the 8th day.
The measurement of edema volume was determined by plethysmography and was performed immediately before injection of adriamycin on the first day (base measurement), and then every day at the same time.
The treatment was maintained for the entire duration of the study. The control group received the dosing vehicle only.
Following the establishment of groups of 10 animals, daily intra-peritoneal administration was carried out according to the following scheme:
Negative control: animals administered olive oil (1 ml/kg).
Positive control: animals administered 100 mg/kg de diosmine (1 ml/kg).
Example 4: animals administered example 4 (1 mil/kg)
Paw edema, expressed as a percentage, is calculated for each animal at each time point:
The percentage reduction in paw oedema at each time point and for each group of animals are calculated as follows: […]
Anti-free radical activity is shown by a significant reduction in paw volume in the treated group compared to the control group.

[2] = activity of the sterol constituent (test not specified); settings: pure sterol in place of sitosterol
[3] = tested on: edema produced by injection of adriamycin under the arch of the hind paw of the rat; settings: cf JL Jadot; cited from earlier work
[4] = iv-injected, rat; cited from earlier work

## COc1ccc(-c2cc(=O)c3c(O)cc(O[C@@H]4O[C@H](CO[C@@H]5O[C@@H](C)[C@H](O)[C@@H](O)[C@H]5O)[C@@H](O)[C@H](O)[C@H]4O)cc3o2)cc1O [Diosmine]
[1]; D1 (base), before adriamycin, 100 mg/kg
  Paw volume, individual animals: 116 and 108 and 102 (2×) and 105 and 120 and 113 and 107 and 103 and 91
[1]; D1 (base), before adriamycin
  Paw volume, group mean: 106.70
[1]; D2-D7, highest significance for Example 4 at D3 and D4 (p<0.001), disappears at D8
  Paw volume in comparison to the negative control: statistically significant difference
[1]; D2
  Paw volume, individual animals: 129 and 152 and 112 (2×) and 107 and 128 and 135 and 118 and 110 and 105
  Percentage paw edema, individual animals: 11.21% and 40.74% and 9.80% (2×) and 1.90% and 6.67% and 19.47% and 10.28% and 6.80% and 15.38%
  Paw volume, group mean: 120.80
  Percentage paw edema, group mean: 13.21%
[1]; D2 to D5, most significant at D3 for Example 4 (p<0.001)
  Percentage of paw edema, change versus control: significant decrease
[1]; D3
  Paw volume, individual animals: 162 and 181 and 142 and 126 and 158 and 160 (2×) and 138 and 134 and 161
  Percentage paw edema, individual animals: 39.66% and 67.59% and 39.22% and 20.00% and 31.67% and 41.59% and 49.53% and 35.29% and 30.10% and 76.92%
  Paw volume, group mean: 152.20
  Percentage paw edema, group mean: 43.16%
  Percentage of edema inhibition (protection): 44.15%
[1]; D4
  Paw volume, individual animals: 152 (2×) and 121 and 180 and 143 and 172 and 158 and 142 and 223 and 187
  Percentage paw edema, individual animals: 31.03% and 12.04% and 76.47% and 36.19% and 43.33% and 39.82% and 32.71% and 118.63% and 81.55% and 67.03%
  Paw volume, group mean: 163.00
  Percentage paw edema, group mean: 53.88%
  Percentage of edema inhibition (protection): 36.98%
[1]; D5
  Paw volume, individual animals: 195 and 200 and 152 and 172 and 188 and 175 and 186 and 165 and 173 and 170
  Percentage paw edema, individual animals: 68.10% and 85.19% and 49.02% and 63.81% and 56.67% and 54.87% and 73.83% and 61.76% and 67.96% and 86.81%
  Paw volume, group mean: 177.6
  Percentage paw edema, group mean: 66.80%
  Percentage of edema inhibition (protection): 21.77%
[1]; D6
  Paw volume, individual animals: 193 and 194 and 153 and 179 and 177 and 172 and 199 and 167 and 183 and 158
  Percentage paw edema, individual animals: 66.38% and 79.63% and 50.00% and 70.48% and 47.50% and 52.21% and 85.98% and 63.73% and 77.67% and 73.63%
  Paw volume, group mean: 177.50
  Percentage paw edema, group mean: 66.72%
  Percentage of edema inhibition (protection): 12.03%
[1]; D7
  Paw volume, individual animals: 195 and 176 and 148 and 174 and 164 (2×) and 166 and 172 and 173 and 150
  Percentage paw edema, individual animals: 68.10% and 62.96% and 45.10% and 65.71% and 36.67% and 46.90% and 60.75% and 60.78% and 67.96% and 64.84%
  Paw volume, group mean: 168.20
  Percentage paw edema, group mean: 57.98%
  Percentage of edema inhibition (protection): 14.05%
[1]; D8
  Paw volume, individual animals: 180 and 173 and 145 and 156 and 165 and 164 (2×) and 175 and 159 and 154
  Percentage paw edema, individual animals: 55.17% and 60.19% and 42.16% and 48.57% and 37.50% and 45.13% and 63.55% and 60.78% and 54.37% and 69.23%
  Paw volume, group mean: 163.50
  Percentage paw edema, group mean: 53.67%
  Percentage of edema inhibition (protection): 0%
[1]; edema progression compared to the control group
  Free radical protection activity (conclusion): confirmed its activity

## CC(C)[C@H](C)CC[C@@H](C)[C@H]1CC[C@H]2[C@@H]3CC=C4C[C@@H](O)CC[C@]4(C)[C@H]3CC[C@]12C [campesterol]
[2]
  activity of pure sterol: no activity

## CC[C@H](CC[C@@H](C)[C@H]1CC[C@H]2[C@@H]3CC[C@H]4C[C@@H](O)CC[C@]4(C)[C@H]3CC[C@]12C)C(C)C [sitostanol]
[2]
  activity of pure sterol: no activity

## bovine SOD: bovine superoxide dismutase enzyme
[3]
  Protection against edema from free radical damage: possesses the same characteristics as Diosmine
[4]
  circulation half life: 7 min
